Results taken from US8192962B2, “Processes for detecting toxic substances” (Daikin Industries, Ltd., priority 2001, dated 2012).

System: Metabolism protein genes
Test: DNA chip mRNA expression in yeast, metabolism protein genes (Table 7)
Type: cell-based, Saccharomyces cerevisiae S288C
Method in brief: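 Expression change after 2 h toxicant exposure (growth-inhibiting, sub-lethal) of log-phase S. cerevisiae S288C at 25° C. Oligo-dT-purified mRNA was labeled with Cy3-dUTP or Cy5-dUTP and hybridized >12 h at 65° C. to a genome-wide chip; ratio of scanned fluorescence to control.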

## Oc1cc(Cl)c(Cl)cc1Cl [(6), 2,4,5-trichlorophenol]
Yeast gene YAL012W
  The level of expressed mRNA in the presence of chemical substance/The level of expressed mRNA in the absence of chemical substance: 1.6
Yeast gene YAL038W
  The level of expressed mRNA in the presence of chemical substance/The level of expressed mRNA in the absence of chemical substance: 1.3
Yeast gene YBL001C
  The level of expressed mRNA in the presence of chemical substance/The level of expressed mRNA in the absence of chemical substance: 2.4
Yeast gene YBR003W
  level of expressed mRNA in the presence/in the absence of chemical substance: 1.2
Yeast gene YBR011C
  level of expressed mRNA in the presence/in the absence of chemical substance: 2.0
Yeast gene YBR020W
  level of expressed mRNA in the presence/in the absence of chemical substance: 0.8
Yeast gene YBR023C
  The level of expressed mRNA in the presence of chemical substance/The level of expressed mRNA in the absence of chemical substance: 0.5
Yeast gene YBR029C
  The level of expressed mRNA in the presence of chemical substance/The level of expressed mRNA in the absence of chemical substance: 0.8
Yeast gene YBR111C
  The level of expressed mRNA in the presence of chemical substance/The level of expressed mRNA in the absence of chemical substance: 3.0
Yeast gene YBR183W
  The level of expressed mRNA in the presence of chemical substance/The level of expressed mRNA in the absence of chemical substance: 2.5
Yeast gene YBR222C
  The level of expressed mRNA in the presence of chemical substance/The level of expressed mRNA in the absence of chemical substance: 1.3
Yeast gene YBR256C
  The level of expressed mRNA in the presence of chemical substance/The level of expressed mRNA in the absence of chemical substance: 2.0
Yeast gene YCL009C
  The level of expressed mRNA in the presence of chemical substance/The level of expressed mRNA in the absence of chemical substance: 1.8
Yeast gene YCL064C
  The level of expressed mRNA in the presence of chemical substance/The level of expressed mRNA in the absence of chemical substance: 3.3
Yeast gene YCR010C
  level of expressed mRNA in the presence/in the absence of chemical substance: 1.3
Yeast gene YCR034W
  level of expressed mRNA in the presence/in the absence of chemical substance: 0.3
Yeast gene YCR048W
  The level of expressed mRNA in the presence of chemical substance/The level of expressed mRNA in the absence of chemical substance: 0.2
Yeast gene YCR098C
  The level of expressed mRNA in the presence of chemical substance/The level of expressed mRNA in the absence of chemical substance: 1.6
Yeast gene YDR009W
  The level of expressed mRNA in the presence of chemical substance/The level of expressed mRNA in the absence of chemical substance: 2.4
Yeast gene YDR019C
  The level of expressed mRNA in the presence of chemical substance/The level of expressed mRNA in the absence of chemical substance: 4.8
Yeast gene YDR050C
  level of expressed mRNA in the presence/in the absence of chemical substance: 1.7
Yeast gene YDR073W
  level of expressed mRNA in the presence/in the absence of chemical substance: 1.3
Yeast gene YDR123C
  level of expressed mRNA in the presence/in the absence of chemical substance: 0.7
Yeast gene YDR178W
  level of expressed mRNA in the presence/in the absence of chemical substance: 2.1
Yeast gene YDR277C
  level of expressed mRNA in the presence/in the absence of chemical substance: 1.1
Yeast gene YDR284C
  level of expressed mRNA in the presence/in the absence of chemical substance: 1.8
Yeast gene YDR345C
  level of expressed mRNA in the presence/in the absence of chemical substance: 1.2
Yeast gene YDR380W
  The level of expressed mRNA in the presence of chemical substance/The level of expressed mRNA in the absence of chemical substance: 0.4
Yeast gene YDR400W
  level of expressed mRNA in the presence/in the absence of chemical substance: 1.1
Yeast gene YDR408C
  level of expressed mRNA in the presence/in the absence of chemical substance: 0.9
Yeast gene YDR483W
  level of expressed mRNA in the presence/in the absence of chemical substance: 1.5
Yeast gene YDR497C
  The level of expressed mRNA in the presence of chemical substance/The level of expressed mRNA in the absence of chemical substance: 0.6
Yeast gene YDR502C
  The level of expressed mRNA in the presence of chemical substance/The level of expressed mRNA in the absence of chemical substance: 1.5
Yeast gene YDR516C
  The level of expressed mRNA in the presence of chemical substance/The level of expressed mRNA in the absence of chemical substance: 1.8
Yeast gene YEL063C
  level of expressed mRNA in the presence/in the absence of chemical substance: 1.3
Yeast gene YER014W
  The level of expressed mRNA in the presence of chemical substance/The level of expressed mRNA in the absence of chemical substance: 4.0
Yeast gene YER015W
  level of expressed mRNA in the presence/in the absence of chemical substance: 0.9
Yeast gene YER026C
  The level of expressed mRNA in the presence of chemical substance/The level of expressed mRNA in the absence of chemical substance: 2.5
Yeast gene YER053C
  The level of expressed mRNA in the presence of chemical substance/The level of expressed mRNA in the absence of chemical substance: 2.8
Yeast gene YER069W
  The level of expressed mRNA in the presence of chemical substance/The level of expressed mRNA in the absence of chemical substance: 1.3
Yeast gene YER081W
  level of expressed mRNA in the presence/in the absence of chemical substance: 1.1
Yeast gene YER096W
  The level of expressed mRNA in the presence of chemical substance/The level of expressed mRNA in the absence of chemical substance: 1.2
Yeast gene YER120W
  level of expressed mRNA in the presence/in the absence of chemical substance: 1.5
Yeast gene YER178W
  The level of expressed mRNA in the presence of chemical substance/The level of expressed mRNA in the absence of chemical substance: 2.5
Yeast gene YFL011W
  level of expressed mRNA in the presence/in the absence of chemical substance: 1.0
Yeast gene YFL014W
  The level of expressed mRNA in the presence of chemical substance/The level of expressed mRNA in the absence of chemical substance: 9.3
Yeast gene YFL030W
  The level of expressed mRNA in the presence of chemical substance/The level of expressed mRNA in the absence of chemical substance: 1.3
Yeast gene YFL031W
  The level of expressed mRNA in the presence of chemical substance/The level of expressed mRNA in the absence of chemical substance: 0.3
Yeast gene YFL056C
  The level of expressed mRNA in the presence of chemical substance/The level of expressed mRNA in the absence of chemical substance: 0.6
Yeast gene YFL057C
  The level of expressed mRNA in the presence of chemical substance/The level of expressed mRNA in the absence of chemical substance: 1.2
Yeast gene YFR047C
  The level of expressed mRNA in the presence of chemical substance/The level of expressed mRNA in the absence of chemical substance: 2.0
Yeast gene YGL012W
  level of expressed mRNA in the presence/in the absence of chemical substance: 1.6
Yeast gene YGL022W
  The level of expressed mRNA in the presence of chemical substance/The level of expressed mRNA in the absence of chemical substance: 0.9
Yeast gene YGL115W
  level of expressed mRNA in the presence/in the absence of chemical substance: 1.2
Yeast gene YGL126W
  The level of expressed mRNA in the presence of chemical substance/The level of expressed mRNA in the absence of chemical substance: 1.6
Yeast gene YGL205W
  level of expressed mRNA in the presence/in the absence of chemical substance: 1.6
Yeast gene YGL209W
  The level of expressed mRNA in the presence of chemical substance/The level of expressed mRNA in the absence of chemical substance: 1.0
Yeast gene YGL248W
  The level of expressed mRNA in the presence of chemical substance/The level of expressed mRNA in the absence of chemical substance: 2.7
Yeast gene YGL253W
  The level of expressed mRNA in the presence of chemical substance/The level of expressed mRNA in the absence of chemical substance: 2.4
Yeast gene YGR037C
  The level of expressed mRNA in the presence of chemical substance/The level of expressed mRNA in the absence of chemical substance: 1.1
Yeast gene YGR055W
  The level of expressed mRNA in the presence of chemical substance/The level of expressed mRNA in the absence of chemical substance: 1.1
Yeast gene YGR096W
  level of expressed mRNA in the presence/in the absence of chemical substance: 1.7
Yeast gene YGR191W
  level of expressed mRNA in the presence/in the absence of chemical substance: 1.1
Yeast gene YGR194C
  The level of expressed mRNA in the presence of chemical substance/The level of expressed mRNA in the absence of chemical substance: 1.9
Yeast gene YGR204W
  level of expressed mRNA in the presence/in the absence of chemical substance: 0.6
Yeast gene YGR244C
  The level of expressed mRNA in the presence of chemical substance/The level of expressed mRNA in the absence of chemical substance: 2.6
Yeast gene YGR256W
  The level of expressed mRNA in the presence of chemical substance/The level of expressed mRNA in the absence of chemical substance: 6.2
Yeast gene YGR282C
  The level of expressed mRNA in the presence of chemical substance/The level of expressed mRNA in the absence of chemical substance: 2.2
Yeast gene YHR025W
  level of expressed mRNA in the presence/in the absence of chemical substance: 0.8
Yeast gene YHR111W
  The level of expressed mRNA in the presence of chemical substance/The level of expressed mRNA in the absence of chemical substance: 1.3
Yeast gene YHR123W
  level of expressed mRNA in the presence/in the absence of chemical substance: 1.0
Yeast gene YHR137W
  The level of expressed mRNA in the presence of chemical substance/The level of expressed mRNA in the absence of chemical substance: 0.7
Yeast gene YHR174W
  The level of expressed mRNA in the presence of chemical substance/The level of expressed mRNA in the absence of chemical substance: 1.5
Yeast gene YHR176W
  The level of expressed mRNA in the presence of chemical substance/The level of expressed mRNA in the absence of chemical substance: 2.3
Yeast gene YHR210C
  level of expressed mRNA in the presence/in the absence of chemical substance: 0.7
Yeast gene YIL006W
  level of expressed mRNA in the presence/in the absence of chemical substance: 0.3
Yeast gene YIL045W
  The level of expressed mRNA in the presence of chemical substance/The level of expressed mRNA in the absence of chemical substance: 1.7
Yeast gene YIL107C
  The level of expressed mRNA in the presence of chemical substance/The level of expressed mRNA in the absence of chemical substance: 1.0
Yeast gene YIL154C
  The level of expressed mRNA in the presence of chemical substance/The level of expressed mRNA in the absence of chemical substance: 1.1
Yeast gene YIL155C
  The level of expressed mRNA in the presence of chemical substance/The level of expressed mRNA in the absence of chemical substance: 1.4
Yeast gene YIL167W
  The level of expressed mRNA in the presence of chemical substance/The level of expressed mRNA in the absence of chemical substance: 7.7
Yeast gene YIR034C
  The level of expressed mRNA in the presence of chemical substance/The level of expressed mRNA in the absence of chemical substance: 1.3
Yeast gene YIR036C
  The level of expressed mRNA in the presence of chemical substance/The level of expressed mRNA in the absence of chemical substance: 0.7
Yeast gene YJL031C
  The level of expressed mRNA in the presence of chemical substance/The level of expressed mRNA in the absence of chemical substance: 1.6
Yeast gene YJL068C
  The level of expressed mRNA in the presence of chemical substance/The level of expressed mRNA in the absence of chemical substance: 1.1
Yeast gene YJL088W
  The level of expressed mRNA in the presence of chemical substance/The level of expressed mRNA in the absence of chemical substance: 2.8
Yeast gene YJL099W
  The level of expressed mRNA in the presence of chemical substance/The level of expressed mRNA in the absence of chemical substance: 2.0
Yeast gene YJL121C
  level of expressed mRNA in the presence/in the absence of chemical substance: 1.1
Yeast gene YJL167W
  level of expressed mRNA in the presence/in the absence of chemical substance: 1.3
Yeast gene YJL172W
  The level of expressed mRNA in the presence of chemical substance/The level of expressed mRNA in the absence of chemical substance: 3.8
Yeast gene YJL219W
  The level of expressed mRNA in the presence of chemical substance/The level of expressed mRNA in the absence of chemical substance: 1.5
Yeast gene YJL221C
  The level of expressed mRNA in the presence of chemical substance/The level of expressed mRNA in the absence of chemical substance: 6.6
Yeast gene YJR077C
  level of expressed mRNA in the presence/in the absence of chemical substance: 0.9
Yeast gene YJR137C
  The level of expressed mRNA in the presence of chemical substance/The level of expressed mRNA in the absence of chemical substance: 1.5
Yeast gene YJR143C
  level of expressed mRNA in the presence/in the absence of chemical substance: 0.6
Yeast gene YJR148W
  The level of expressed mRNA in the presence of chemical substance/The level of expressed mRNA in the absence of chemical substance: 2.0
Yeast gene YJR155W
  The level of expressed mRNA in the presence of chemical substance/The level of expressed mRNA in the absence of chemical substance: 1.4
